Where two headings read alike, the source gives them in different places.
Experiments:
[1] = biological target: T1, estrogen-related receptor alpha (ERRα) (Homo sapiens, UniProt P11474)
T1 sequence (P11474 1-423): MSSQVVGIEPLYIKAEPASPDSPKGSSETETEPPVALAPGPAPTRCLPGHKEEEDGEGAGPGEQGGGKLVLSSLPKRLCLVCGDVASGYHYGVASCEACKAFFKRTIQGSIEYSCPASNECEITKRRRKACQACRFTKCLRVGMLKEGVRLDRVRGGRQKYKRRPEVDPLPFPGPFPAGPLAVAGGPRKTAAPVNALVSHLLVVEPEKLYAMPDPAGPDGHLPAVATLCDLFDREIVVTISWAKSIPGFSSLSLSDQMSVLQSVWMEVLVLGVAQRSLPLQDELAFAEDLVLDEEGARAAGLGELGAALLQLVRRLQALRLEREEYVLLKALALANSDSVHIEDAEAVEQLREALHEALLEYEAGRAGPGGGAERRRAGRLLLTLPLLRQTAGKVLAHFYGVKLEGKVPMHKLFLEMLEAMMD

IDH3α = assay: qRT-PCR mRNA expression of ERR downstream gene IDH3α; assay type: cell-based; conditions: ERR reporter cells, vs GAPDH, DMSO = 0%
Description: (§1) Total RNA was isolated from treated ERR reporter cells using an RNeasy Mini Kit (Qiagen, Germantown, MD, USA), homogenized using a QIAshredder (Qiagen), and reverse transcribed with a High-Capacity RNA-to-cDNA™ Kit (ThermoFisher Scientific, Inc.) following the manufacturers’ instructions. Expression of ERRα, COX8α, IDH3α, PPARα, COX4I1, and cytochrome c genes was normalized against GAPDH. All primers were purchased from ThermoFisher Scientific, Inc. Real-time PCR assays were performed in 384-well plates on a QuantStudio 5 (Applied Biosystems, Foster City, CA, USA) with TaqMan™ Gene Expression Master Mix (ThermoFisher Scientific, Inc.). Induction values were calculated using the equation: Fold = 2^ΔΔCt, where ΔCt represents the differences in cycle threshold numbers between each of the target genes and GAPDH, and ΔΔCt represents the relative change in these differences between control and treatment groups. Experimental data are presented as a mean of triplicate determinations ± SD. Statistical comparisons were made by t-test, while the statistical significance was set at p values of <0.05 (light blue), <0.01 (medium blue), and <0.001 (dark blue).

[2] = biological target: T2, ERRα with PGC-1α (PGC/ERR pathway) (Homo sapiens, UniProt P11474); assay: PGC/ERR reporter (luciferase) qHTS assay, PGC/ERR-HEK293; conditions: for EC50: mean ± SD, triplicate
T2 sequence (P11474 1-423): T1 sequence (P11474 1-423)

[3] = test system: PGC/ERR reporter HEK293 cells; assay: CellTiter-Fluor cell viability assay multiplexed with PGC/ERR reporter assay; assay type: cell-based; conditions: for PGC/ERR-HEK293 Follow-Up Viability EC50: follow-up screen; for PGC/ERR-HEK293 Primary Viability EC50: primary qHTS
Description: (§2) ERR or PGC/ERR reporter HEK293 cells suspended in culture medium without puromycin were dispensed at 2500 cells/5 μL/well in tissue culture–treated 1536-well white assay plates (Greiner Bio-One North America, Monroe, NC, USA) using a Thermo Scientific Multidrop Combi (ThermoFisher Scientific, Inc.). […] After the cells were incubated at 37 °C with 5% CO2 for 6 h, 23 nL of compounds or control, XTC790, was transferred into the assay plates using a Wako Pintool station (Wako Automation, San Diego, CA, USA). The assay plates were incubated at 37 °C for 18 h, followed by the addition of 5 μL ONE-Glo luciferase reagent (Promega, Madison, WI, USA) using a Flying Reagent Dispenser (Aurora Discovery, Carlsbad, CA, USA). After 30 min of incubation at room temperature, the luminescence intensity of the assay plates was quantified using a ViewLux plate reader (PerkinElmer, Shelton, CT, USA). The assays were performed three times for each compound concentration. These ERR and PGC/ERR reporter assays were multiplexed with the CellTiter-Fluor Cell Viability Assay (Promega), a fluorescence-based cell viability assay, to assess compound cytotoxicity.
The qHTS data were analyzed as described previously. Each titration point was normalized relative to the positive control compound (XCT790 = −100%) and DMSO-only wells (0%) according to the following equation: % Activity = [(Vcompound − VDMSO)/(VDMSO − Vpos)] × 100, where Vcompound denotes the compound well values, Vpos denotes the median value of the positive control wells, and VDMSO denotes the median values of the DMSO-only wells. The DMSO-only compound plates at the beginning and end of the compound plate stack were used to correct the data set by applying an in-house pattern correction algorithm. The half maximum inhibition values (IC50) for each compound and maximum response (efficacy) values were obtained by fitting the concentration-response curves of each compound to a four-parameter Hill equation [91]. Compounds were designated as Class 1–4 according to the type of concentration–response curve observed. For each reading, the activity outcome of a test compound was first categorized by the average curve rank from the triplicate runs and the reproducibility calls. The final activity outcome of each compound was based on the ERR antagonist readout activity and cell viability counter screen.

[4] = biological target: T1, estrogen-related receptor alpha (ERRα); assay: ERR reporter (luciferase) antagonist qHTS assay, ERR-HEK293; conditions: for EC50: mean ± SD, triplicate
[5] = biological target: T2, ERRα with PGC-1α (PGC/ERR pathway)
[6] = test system: ERR reporter HEK293 cells; assay: CellTiter-Fluor cell viability assay multiplexed with ERR reporter assay; assay type: cell-based; conditions: for EC50: Homo sapiens, HEK293
Description: as §2
The qHTS data were analyzed as described previously. […] The DMSO-only compound plates at the beginning and end of the compound plate stack were used to correct the data set by applying an in-house pattern correction algorithm. The half maximum inhibition values (IC50) for each compound and maximum response (efficacy) values were obtained by fitting the concentration-response curves of each compound to a four-parameter Hill equation [91]. […] For each reading, the activity outcome of a test compound was first categorized by the average curve rank from the triplicate runs and the reproducibility calls. The final activity outcome of each compound was based on the ERR antagonist readout activity and cell viability counter screen.

cytochrome c = assay: qRT-PCR mRNA expression of ERR downstream gene cytochrome c; assay type: cell-based; conditions: ERR reporter cells, vs GAPDH, DMSO = 0%
Description: as §1

COX4I1 = assay: qRT-PCR mRNA expression of ERR downstream gene COX4I1; assay type: cell-based; conditions: 5 µM; ERR reporter cells; vs GAPDH, DMSO = 0%
Description: as §1, with “Experimental data are presented as a mean of triplicate determinations ± SD. Statistical comparisons were made by t-test, while the statistical significance was set at p values of <0.05 (light blue), <0.01 (medium blue), and <0.001 (dark blue).” left out

COX8α = assay: qRT-PCR mRNA expression of ERR downstream gene COX8α; assay type: cell-based; conditions: 2 µM; ERR reporter cells; vs GAPDH, DMSO = 0%
Description: as §1

[7] = PGC/ERR-HEK293 Follow-Up EC50, follow-up screen
[8] = PGC/ERR-HEK293 Primary EC50, primary qHTS, 18 h
[9] = ERR-HEK293 Follow-Up EC50, follow-up (confirmation) screen
[10] = ERR-HEK293 Primary EC50, primary qHTS, 18 h, 15 concentrations
[11] = primary qHTS, viability counter screen

SMILES | ERR-HEK293 Follow-Up Efficacy [1] | ERR-HEK293 Primary Efficacy [1] | EC50 [2, 7] | EC50 [2, 8] | PGC/ERR-HEK293 Follow-Up Viability EC50 [3] | PGC/ERR-HEK293 Primary Viability EC50 [3] | EC50 [4, 9] | EC50 [4, 10] | PGC/ERR-HEK293 Follow-Up Efficacy [5] | PGC/ERR-HEK293 Primary Efficacy [5] | ERR-HEK293 Follow-Up Viability EC50 ([6]; follow-up screen, viability) | ERR-HEK293 Primary Viability EC50 [6, 11] | other results
CC(C)(C)c1ccc(CSc2cnn(C(C)(C)C)c(=O)c2Cl)cc1 [Pyridaben] | −94.1 ± 13.4% | −77.3 ± 4.10% | 43.4 ± 20 nM | 7.81 ± 3.01 nM | Inactive | Inactive | 24.5 ± 9.42 nM | 5.92 ± 0.815 nM | −63.1 ± 29.7% | −57.6 ± 8.49% | Inactive | Inactive | Percent inhibition of mRNA gene expression, IDH3α (IDH3α; 15 nM): 14.6%; activity in the ERR/PGC assay ([2]; in words): antagonism; activity in the ERR assay ([4]; in words): potent antagonists
COC(=O)N(OC)c1ccccc1COc1ccn(-c2ccc(Cl)cc2)n1 [Pyraclostrobin] | −80.0 ± 5.67% | −90.7 ± 11.9% | 539 ± 760 nM | 838 ± 771 nM | Inactive |  | 762 nM | 239 ± 130 nM | −42.1 ± 9.82% | −58.2 ± 4.17% | Inactive |  | Percent inhibition of mRNA gene expression, IDH3α (IDH3α; 1 µM): 5.06 ± 5.03%; EC50 ([3]; Homo sapiens, HEK293, primary qHTS, read-out: PGC/ERR-HEK293 Primary Viability EC50 (converted)): 74500 nM; EC50 ([6]; primary qHTS, viability counter screen, read-out: ERR-HEK293 Primary Viability EC50 (converted)): 40900 nM; Percent inhibition of mRNA gene expression, Cytochrome C (cytochrome c; 1 µM): 11.0 ± 8.54%
Cc1nc2ccccc2n1Cc1ccc(Cl)cc1 [Chlormidazole] |  |  |  |  |  |  |  |  |  |  |  |  | Percent inhibition of mRNA gene expression, IDH3α (IDH3α; 5 µM): 23.8 ± 3.17%; Percent inhibition of mRNA gene expression, COX4I1 (COX4I1): 4.71 ± 5.09%; Percent inhibition of mRNA gene expression, Cytochrome C (cytochrome c; 5 µM): 35.8 ± 3.92%
CO/N=C(/C(=O)OC)c1ccccc1COc1ccccc1C [Kresoxim-methyl] | −102 ± 1.40% | −86.6 ± 21.1% | 17700 ± 6040 nM | 7660 ± 6870 nM | Inactive | Inactive | 8310 ± 3290 nM | 5650 ± 6960 nM | −61.1 ± 10.0% | −56.7 ± 8.51% | Inactive | Inactive | Percent inhibition of mRNA gene expression, IDH3α (IDH3α; 2 µM): 8.26 ± 19.3%; Percent inhibition of mRNA gene expression, COX8α (COX8α): 9.70 ± 12.8%; Percent inhibition of mRNA gene expression, Cytochrome C (cytochrome c; 2 µM): 9.31 ± 0.48%
CO/C=C(/C(=O)OC)c1ccccc1COc1cccc(C(F)(F)F)n1 [Picoxystrobin] | −86.7 ± 15.8% | −83.9 ± 10.6% | 4190 ± 2970 nM | 2790 ± 2400 nM | Inactive | Inactive | 3420 ± 393 nM | 807 ± 279 nM | −43.6 ± 14.2% | −44.2 ± 4.37% |  | Inactive | EC50 ([6]; follow-up screen, viability, read-out: ERR-HEK293 Follow-Up Viability EC50 (converted)): 32100 nM
